Assay results from PMC7750480, “A hybrid approach reveals the allosteric regulation of GTP cyclohydrolase I” (Proceedings of the National Academy of Sciences of the …, 2020).
Residue numbers refer to the chain shown, from its start.

Experiments:
GCH1 [1] = target: T1, GCH1 (Homo sapiens, UniProt P30793); assay: functional assay with 1H-NMR detection of formate; format: biochemical
T1 construct: The hGCH1 (42-250, N-terminal 6xHis Tag and TEV cleavage site); 6xHis (N); TEV cleavage site (N); made in house; host or cells: E. coli BL21(DE3)
T1 sequence (P30793 42-250): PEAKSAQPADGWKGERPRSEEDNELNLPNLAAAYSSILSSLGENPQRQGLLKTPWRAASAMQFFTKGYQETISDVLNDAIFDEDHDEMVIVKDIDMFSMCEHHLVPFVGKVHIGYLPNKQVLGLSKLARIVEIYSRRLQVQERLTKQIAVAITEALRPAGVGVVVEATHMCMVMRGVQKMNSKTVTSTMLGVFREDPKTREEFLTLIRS
Experimental: For the functional assay, each NMR sample was prepared with 10 μM GCH1 and 170 μM or 600 μM test compound. The PBS NMR buffer additionally contained 300 μM GTP (Cayman Chemical cat. no. 16060). After a reaction time of 45 min (25 °C), a certain amount of substrate molecules (GTP) has been converted by GCH1 into 7,8-Dihydroneopterin (H2NPT) and the by-product formate (deprotonated formic acid). For product detection, a WATERGATE 1H-NMR spectrum was recorded (128 scans). We used the integrated NMR signal of the formate α-proton at 8.33 ppm as a relative enzyme activity readout. The formate integral of a negative control sample (dimethyl sulfoxide) has been set to 100%. An inhibitory active test compound decreases the GTP turnover and leads to a reduced relative formate signal integral (% inhibition). DAHP was used as a positive control.
(§1) Supplemental Figure 6: Detection of product formation and STD NMR assay. A) Enzyme activity assay for GCH1 based on colorimetric detection of H2NTP or 1H-NMR detection of formate. […]
(§2) inhibitor (e.g. BH4). B) STD NMR is capable to detect GTP binding (green). Addition of another active site binder (8-oxo […]
STD NMR enhancement of substrate GTP in the presence of allosteric regulator BH4 (red). This screening assay allows for the identification of allosteric binders. […]

GCH1 [2] = target: T1, GCH1; assay: STD NMR assay with active site reporter ligand GTP; format: binding; conditions: in the presence of allosteric regulator
Text: as §1, §2
STD NMR enhancement of substrate GTP in the presence of allosteric regulator BH4 (red). This screening assay allows for the identification of allosteric binders. C) Correlation of activity in functional NMR assay and STD NMR enhancement of active site reporter ligand GTP.
(1 picture or pasted object on this page, not shown here)

R235A-GCH1 = target: T2, R235A-GCH1 (Homo sapiens, UniProt P30793, R235A); assay: enzyme kinetics, H2NTP formation at 330 nm, R235A-GCH1; format: biochemical; conditions: in the absence and presence of GFRP; 0.1 mM BH4
T2 construct: The hGCH1 (42-250, N-terminal 6xHis Tag and TEV cleavage site); 6xHis (N); TEV cleavage site (N); made in house; host or cells: E. coli BL21(DE3)
T2 sequence (P30793 42-250 R235A): T1 sequence (P30793 42-250) with R194A
Experimental: (§3) In order to test the role of the key residues H126, D127, E128, R235, and R241 involved in allosteric inhibitor binding and conformational change, various point mutants were prepared and tested for their ability to be stimulated and inhibited by effector molecules in the presence or absence of GFRP. […] Enzyme activity was evaluated using an activity assay measuring the formation of the product H2NTP at 330 nm with increasing GTP concentrations.
(§4) GTPCH-I specific enzyme activity was determined by spectrometric measuring of the concentration of its direct product H2NTP. Synergy H1 (BioTek Instruments) and Gen5 2.01 software were used to evaluate H2NTP concentration and the maximal turnover rate (Vmax) within each measuring interval. H2NTP concentration was measured at 330 nm over a measuring period of 2 h using a measuring interval of 2 min to 4 min at 37 °C. Samples were prepared using 2 μM GTPCH-I, varying concentrations of GTP (1 μM to 2,000 µM) and in the absence or presence of 15 mM phenylalanine, 0.1 mM BH4, or 3 μM GFRP. The assay buffer used was 50 mM Tris/HCl, pH 7.5, 100 mM KCl. The specific enzyme activity (A) was calculated using the path length of 0.15 cm and the extinction coefficient […] = 6,300 M^−1⋅cm^−1 H2NTP. […] All enzymatic data were, at least, measured in triplicate (n = 3).

GCH1 WT [3] = target: T3, GCH1 WT (Homo sapiens, UniProt P30793); assay: enzyme kinetics, H2NTP formation at 330 nm, WT GCH1; format: biochemical; conditions: colorimetric detection of H2NTP
T3 construct: The hGCH1 (42-250, N-terminal 6xHis Tag and TEV cleavage site); 6xHis (N); TEV cleavage site (N); made in house; host or cells: E. coli BL21(DE3)
T3 sequence (P30793 42-250): T1 sequence (P30793 42-250)
Experimental: as §3, §4

R241A-GCH1 = target: T4, R241A-GCH1 (Homo sapiens, UniProt P30793, R241A); assay: enzyme kinetics, H2NTP formation at 330 nm, R241A-GCH1; format: biochemical; conditions: in the absence and presence of GFRP; 0.1 mM BH4
T4 construct: The hGCH1 (42-250, N-terminal 6xHis Tag and TEV cleavage site); 6xHis (N); TEV cleavage site (N); made in house; host or cells: E. coli BL21(DE3)
T4 sequence (P30793 42-250 R241A): T1 sequence (P30793 42-250) with R200A
Experimental: as §3, §4

GCH1 E128A = target: T5, GCH1 E128A (Homo sapiens, UniProt P30793, E128A); assay: differential scanning fluorimetry (DSF), E128A; format: binding; conditions: protein melting point in presence of GTP
T5 construct: The hGCH1 (42-250, N-terminal 6xHis Tag and TEV cleavage site); 6xHis (N); TEV cleavage site (N); made in house; host or cells: E. coli BL21(DE3)
T5 sequence (P30793 42-250 E128A): T1 sequence (P30793 42-250) with E87A
Experimental: (§5) The Tm of proteins and protein complexes was determined by DSF using the Thermofluor Bio-Rad CFX384 and the Bio-Rad CFX Manager software. Ten micromolar protein solution was equipped with 5× SYPRO Orange Protein Gel Stain (Invitrogen) reaching a total volume of 10 μL. Effector molecules and GFRP were added in different concentrations to test their influence on thermal stability; 384 well plates were heated up using a temperature ramp from 15 °C to 95 °C in 1 °C/min steps.

GCH1 D127A = target: T6, GCH1 D127A (Homo sapiens, UniProt P30793, D127A); assay: differential scanning fluorimetry (DSF), D127A; format: binding
T6 construct: The hGCH1 (42-250, N-terminal 6xHis Tag and TEV cleavage site); 6xHis (N); TEV cleavage site (N); made in house; host or cells: E. coli BL21(DE3)
T6 sequence (P30793 42-250 D127A): T1 sequence (P30793 42-250) with D86A
Experimental: as §5

GCH1 F122A = target: T7, GCH1 F122A (Homo sapiens, UniProt P30793, F122A); assay: differential scanning fluorimetry (DSF), F122A; format: binding
T7 construct: The hGCH1 (42-250, N-terminal 6xHis Tag and TEV cleavage site); 6xHis (N); TEV cleavage site (N); made in house; host or cells: E. coli BL21(DE3)
T7 sequence (P30793 42-250 F122A): T1 sequence (P30793 42-250) with F81A
Experimental: as §5

GCH1 R241A = target: T8, GCH1 R241A (Homo sapiens, UniProt P30793, R241A); assay: differential scanning fluorimetry (DSF), R241A; format: binding
T8 construct: The hGCH1 (42-250, N-terminal 6xHis Tag and TEV cleavage site); 6xHis (N); TEV cleavage site (N); made in house; host or cells: E. coli BL21(DE3)
T8 sequence (P30793 42-250 R241A): T1 sequence (P30793 42-250) with R200A
Experimental: as §5

GCH1 WT [4] = target: T3, GCH1 WT; assay: differential scanning fluorimetry (DSF), WT GCH1; format: binding; conditions: protein melting point in presence of GTP
Experimental: as §5

GCH1 R235A = target: T9, GCH1 R235A (Homo sapiens, UniProt P30793, R235A); assay: differential scanning fluorimetry (DSF), R235A; format: binding
T9 construct: The hGCH1 (42-250, N-terminal 6xHis Tag and TEV cleavage site); 6xHis (N); TEV cleavage site (N); made in house; host or cells: E. coli BL21(DE3)
T9 sequence (P30793 42-250 R235A): T1 sequence (P30793 42-250) with R194A
Experimental: as §5

GCH1 H126A = target: T10, GCH1 H126A (Homo sapiens, UniProt P30793, H126A); assay: differential scanning fluorimetry (DSF), H126A; format: binding
T10 construct: The hGCH1 (42-250, N-terminal 6xHis Tag and TEV cleavage site); 6xHis (N); TEV cleavage site (N); made in house; host or cells: E. coli BL21(DE3)
T10 sequence (P30793 42-250 H126A): T1 sequence (P30793 42-250) with H85A
Experimental: as §5

[5] = protein melting point in presence of GTP
[6] = shift of melting point with GTP

SMILES | formate production in presence of inhibitor (GCH1 [1]) | effect on STD NMR signal of substrate GTP (allosteric regulator) (GCH1 [2]) | inhibition of enzyme activity by BH4 (R235A-GCH1) | H2NTP production in presence of inhibitor (GCH1 WT [3]) | inhibition of enzyme activity by BH4 (R241A-GCH1) | TM + GTP (GCH1 E128A) | TM + GTP (GCH1 D127A; [5]) | ΔTM WT+GTP (GCH1 D127A; [6]) | TM + GTP (GCH1 F122A; [5]) | ΔTM WT+GTP (GCH1 F122A; [6]) | TM + GTP (GCH1 R241A; [5]) | ΔTM WT+GTP (GCH1 R241A; [6]) | TM + GTP (GCH1 WT [4]) | TM + GTP (GCH1 R235A; [5]) | ΔTM WT+GTP (GCH1 R235A; [6]) | TM + GTP (GCH1 H126A; [5]) | ΔTM WT+GTP (GCH1 H126A; [6])
C[C@H](O)[C@H](O)[C@H]1CNc2nc(N)[nH]c(=O)c2N1 [BH4, tetrahydrobiopterin] | No H2NTP or formate is produced | enhancement | cannot be inhibited | No H2NTP or formate is produced | cannot be inhibited | – | – | – | – | – | – | – | – | – | – | – | –
Nc1nc2c(ncn2[C@@H]2O[C@H](COP(=O)(O)OP(=O)(O)OP(=O)(O)O)[C@@H](O)[C@H]2O)c(=O)[nH]1 [GTP, Guanosine triphosphate] | – | – | – | – | – | 78.5 °C | 78.0 °C | 5.0 °C | 75.2 °C | 4.2 °C | 86.2 °C | 17.7 °C | 83.2 °C | 81.2 °C | 11.2 °C | 80.0 °C | 6.0 °C
